Patent publication US20190264255A1, “Competition Test of an Enzyme Substrate with Internal Compensation for Enzyme Activity” (TECHNISCHE UNIVERSITÄT DARMSTADT, priority 2016, published 2019)

Target: Thrombin (Homo sapiens, UniProt P00734)
Experiment: Thrombin cleavage of Z-Gly-Pro-Arg-p-phenylenediamine, photometric detection by oxidative coupling with a-naphthol
Format: biochemical
Conditions: pH 8; buffer as for fluorescence measurement + 2% Triton X100; substrate cleavage by thrombin
Description: Buffer, substrate and fibrinogen were placed in a 96-well microtiter plate. The enzyme was injected with the injector attached to the TECAN reader. The experimental conditions are set out in the following information. • Substrate conc. Z-Gly-Pro-Arg-aminomethylcoumarin 10 mM in DMSO • Substrate dil. Z-Gly-Pro-Arg-aminomethylcoumarin 1 mM in DMSO • Test buffer 50 mM Tris, 250 mM NaCl, 0.1% PEG6000, pH 8.0 • Haemocomplettan 100 mg/ml dist. water≅44 mg/ml of fibrinogen • Enzyme Solution 1 U/ml in 10 mM HEPES, 0.1% bovine serum albumin, pH 6.4 • Temperature 30 C
Thrombin also cleaves Z-Gly-Pro-Arg-p-phenylenediamine. The product could be detected by oxidative coupling with a-naphthol in the presence of hexacyanoferrate III. The result was a violet dye with Amax=565 nm. The Michaelis-Menten constant at pH 8 (buffer as for fluorescence measurement+2% Triton X100) was 6 μM.

With Z-Gly-Pro-Arg-p-phenylenediamine the Michaelis-Menten constant was 6 µM.
